Reference: US10407409B2, “6-(5-hydroxy-1H-pyrazol-1-yl)nicotinamide inhibitors of PHD” (Takeda Pharmaceutical Company Limited, priority 2013, dated 2019)

Legend:
[1] = tested on: HIF1a protein in H9c2 rat cardiomyocytes; test: Cell-based HIF-alpha stabilization assay (inhibition of PHD in cells); conditions: Rattus norvegicus, H9c2, 24 h, 24 hrs compound incubation, HIF1a protein by ELISA, read-out: Inhibition of PHD in cells (pEC50) (converted)
Outline: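 Rat H9c2 cardiomyocytes, cultured 24 h, were treated 24 h with an 11-point serial dilution of compound. HIF1a in whole-cell lysates was quantified by ELISA as % of the maximal desferrioxamine response. EC50 came from curve fitting; EC50pos is the concentration reaching 50% of the desferrioxamine maximum.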

[2] = biological target: PHD2 enzyme (residues 181-417) (Homo sapiens (Human), UniProt Q9GZT9); test: Inhibition of PHD enzyme (LC/MS peptide hydroxylation assay); assay type: biochemical; conditions: PHD2 (residues 181-417) 5 nM, 60 min pre-incubation; -log(IC50), IC50 molar
Outline: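 PHD2 (5 nM final) preincubated with inhibitor 60 min at RT in 50 mM HEPES, 50 mM KCl, 0.5 mM TCEP, 2 uM FeCl2, 0.1 mg/ml BSA, pH 7.3. Reaction started with biotin-peptide (1 uM), 2-oxoglutarate (2 uM), ascorbate (1 mM), quenched at 60 min; hydroxylated product by LC/MS, reported as pIC50.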

Chain of PHD2 enzyme (residues 181-417) (Q9GZT9 181-417): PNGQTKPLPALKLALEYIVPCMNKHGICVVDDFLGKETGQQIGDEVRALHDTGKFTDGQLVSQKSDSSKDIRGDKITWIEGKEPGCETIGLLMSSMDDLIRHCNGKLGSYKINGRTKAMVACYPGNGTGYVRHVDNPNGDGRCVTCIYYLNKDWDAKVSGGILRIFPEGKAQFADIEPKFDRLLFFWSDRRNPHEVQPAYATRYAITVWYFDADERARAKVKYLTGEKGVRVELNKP

| PHD Inhibition (pIC50) [2] | SMILES | EC50 [1] |
| --- | --- | --- |
| 7.9 | COCC(C)CNC(=O)c1ccc(-n2ncc(-c3ccnc(OC)c3)c2O)nc1 (stereo not shown) [Example 49, 6-(5-hydroxy-4-(2-methoxypyridin-4-yl)-1H-pyrazol-1-yl)-N-(3-methoxy-2-methylpropyl)nicotinamide] | 871 nM |
| 7.89 | Cc1cc(C#N)ccc1-c1cnn(-c2ccc(C(=O)N(C)C3CCN(C)C3)cn2)c1O (stereo not shown) [Example 368, 6-(4-(4-cyano-2-methylphenyl)-5-hydroxy-1H-pyrazol-1-yl)-N-methyl-N-(1-methylpyrrolidin-3-yl)nicotinamide] | 575 nM |
| 8 | Cc1cc(C#N)ccc1-c1cnn(-c2ccc(C(=O)NCC3CCN(C)C3)cn2)c1O (stereo not shown) [Example 96, 6-(4-(4-cyano-2-methylphenyl)-5-hydroxy-1H-pyrazol-1-yl)-N-((1-methylpyrrolidin-3-yl)methyl)nicotinamide] | 56.2 nM |
| 8.44 | Cc1cc(C#N)c(F)cc1-c1cnn(-c2ccc(C(=O)N3CCN(C)[C@H](C)C3)cn2)c1O [Example 401, (R)-4-(1-(5-(3,4-dimethylpiperazine-1-carbonyl)pyridin-2-yl)-5-hydroxy-1H-pyrazol-4-yl)-2-fluoro-5-methylbenzonitrile] | 1580 nM |
| 8.3 | COC1CCN(C(=O)c2ccc(-n3ncc(-c4ccc(C#N)cc4C)c3O)nc2)CC1 [Example 249, 4-(5-hydroxy-1-(5-(4-methoxypiperidine-1-carbonyl)pyridin-2-yl)-1H-pyrazol-4-yl)-3-methylbenzonitrile] | 275 nM |
| 8.52 | CCN1CCN(C(=O)c2ccc(-n3ncc(-c4cc(F)c(C#N)cc4C)c3O)nc2)C[C@@H]1C [Example 397, (S)-4-(1-(5-(4-ethyl-3-methylpiperazine-1-carbonyl)pyridin-2-yl)-5-hydroxy-1H-pyrazol-4-yl)-2-fluoro-5-methylbenzonitrile] | 1620 nM |
| 8.65 | Cc1cc(C#N)c(F)cc1-c1cnn(-c2ccc(C(=O)N3CCOCC3)cn2)c1O [Example 398, 2-fluoro-4-(5-hydroxy-1-(5-(morpholine-4-carbonyl)pyridin-2-yl)-1H-pyrazol-4-yl)-5-methylbenzonitrile] | 1950 nM |
| 7.06 | CNC(=O)c1cnc(-n2ncc(-c3ccc(C#N)cc3)c2O)cc1C [Example 273, 6-(4-(4-cyanophenyl)-5-hydroxy-1H-pyrazol-1-yl)-N,4-dimethylnicotinamide] | 9330 nM |
| 8.1 | Cc1cc(C#N)ccc1-c1cnn(-c2ccc(C(=O)NC3CCN(C4CC4)CC3)cn2)c1O [Example 140, 6-(4-(4-cyano-2-methylphenyl)-5-hydroxy-1H-pyrazol-1-yl)-N-(1-cyclopropylpiperidin-4-yl)nicotinamide] | 120 nM |
| 8.28 | Cc1cc(C#N)ccc1-c1cnn(-c2ccc(C(=O)N3CCC[C@@H](N(C)C4CC4)C3)cn2)c1O [Example 383, (R)-4-(1-(5-(3-(cyclopropyl(methyl)amino)piperidine-1-carbonyl)pyridin-2-yl)-5-hydroxy-1H-pyrazol-4-yl)-3-methylbenzonitrile] | 1100 nM |
| 7.9 | COCC1(CNC(=O)c2ccc(-n3ncc(-c4ccc(C#N)cc4C)c3O)nc2)CCCC1 [Example 143, 6-(4-(4-cyano-2-methylphenyl)-5-hydroxy-1H-pyrazol-1-yl)-N-((1-(methoxymethyl)cyclopentyl)methyl)nicotinamide] | 891 nM |
| 8.1 | COCC(C)CNC(=O)c1ccc(-n2ncc(-c3ccc(C#N)cc3C)c2O)nc1 (stereo not shown) [Example 182, 6-(4-(4-cyano-2-methylphenyl)-5-hydroxy-1H-pyrazol-1-yl)-N-(3-methoxy-2-methylpropyl)nicotinamide] | 309 nM |
| 8.47 | CCN1CCN(C(=O)c2ccc(-n3ncc(-c4ccc(C#N)c(F)c4C)c3O)nc2)[C@@H](C)C1 [Example 341, (S)-4-(1-(5-(4-ethyl-2-methylpiperazine-1-carbonyl)pyridin-2-yl)-5-hydroxy-1H-pyrazol-4-yl)-2-fluoro-3-methylbenzonitrile] | 589 nM |
| 7.68 | N#Cc1ccc(-c2cnn(-c3ccc(C(=O)N[C@@H]4CCOC4)cn3)c2O)cc1 [Example 154, (R)-6-(4-(4-cyanophenyl)-5-hydroxy-1H-pyrazol-1-yl)-N-(tetrahydrofuran-3-yl)nicotinamide] | 1480 nM |
| 7.66 | CC[C@H](C)NC(=O)c1ccc(-n2ncc(-c3ccc(C#N)cc3)c2O)nc1 [Example 87, (S)—N-(sec-butyl)-6-(4-(4-cyanophenyl)-5-hydroxy-1H-pyrazol-1-yl)nicotinamide] | 603 nM |
| 8.3 | COc1cc(-c2cnn(-c3ccc(C(=O)NCCC4CCCCO4)cn3)c2O)ccn1 (stereo not shown) [Example 207, 6-(5-hydroxy-4-(2-methoxypyridin-4-yl)-1H-pyrazol-1-yl)-N-(2-(tetrahydro-2H-pyran-2-yl)ethyl)nicotinamide] | 123 nM |
| 8.25 | CCN1CCN(C(=O)c2ccc(-n3ncc(-c4ccc(C#N)cc4C)c3O)nc2)C[C@H]1C [Example 388, (R)-4-(1-(5-(4-ethyl-3-methylpiperazine-1-carbonyl)pyridin-2-yl)-5-hydroxy-1H-pyrazol-4-yl)-3-methylbenzonitrile] | 513 nM |
| 7.1 | COCCCNC(=O)c1ccc(-n2ncc(-c3ccnc(OC)c3)c2O)nc1 [Example 203, 6-(5-hydroxy-4-(2-methoxypyridin-4-yl)-1H-pyrazol-1-yl)-N-(3-methoxypropyl)nicotinamide] | 603 nM |
| 8.3 | COCC1CCN(C(=O)c2ccc(-n3ncc(-c4ccc(C#N)cc4C)c3O)nc2)C1 (stereo not shown) [Example 252, 4-(5-hydroxy-1-(5-(3-(methoxymethyl)pyrrolidine-1-carbonyl)pyridin-2-yl)-1H-pyrazol-4-yl)-3-methylbenzonitrile] | 263 nM |
| 7.05 | Cc1cc(-n2ncc(-c3ccc(C#N)cc3)c2O)ncc1C(=O)N[C@H]1CC[C@@H](O)CC1 [Example 278, 6-(4-(4-cyanophenyl)-5-hydroxy-1H-pyrazol-1-yl)-N-((1s,4s)-4-hydroxycyclohexyl)-4-methylnicotinamide] | 3240 nM |
| 8 | CCNC(=O)c1ccc(-n2ncc(-c3ccnc(OC)c3)c2O)nc1 [Example 34, N-ethyl-6-(5-hydroxy-4-(2-methoxypyridin-4-yl)-1H-pyrazol-1-yl)nicotinamide] | 513 nM |
| 7.6 | COCCNC(=O)c1ccc(-n2ncc(-c3ccc(C#N)cc3)c2O)nc1 [Example 152, 6-(4-(4-cyanophenyl)-5-hydroxy-1H-pyrazol-1-yl)-N-(2-methoxyethyl)nicotinamide] | 2040 nM |
| 7.78 | Cc1cc(C#N)ccc1-c1cnn(-c2ccc(C(=O)N3CCC(N(C)C)CC3)cn2)c1O [Example 416, 4-(1-(5-(4-(dimethylamino)piperidine-1-carbonyl)pyridin-2-yl)-5-hydroxy-1H-pyrazol-4-yl)-3-methylbenzonitrile] | 1410 nM |
